# Measured values from publication PMC9127750, “Structure-based design of CDC42 effector interaction inhibitors for the treatment of cancer” (Cell reports, 2022).
# Values joined by “and” are separate entries in the source; they are usually repeats but may differ in a detail not shown here. Equal entries are not always repeated.
# System: WM3248 melanoma cells, 486 antibodies
# Assay: Reverse phase protein arrays (RPPA)
# Type: cell-based, Human
# Conditions: 20 uM, single replicates
# Excerpt: Pellets were snap frozen in liquid nitrogen and shipped to MD Anderson Cancer Center core RPPA facility for RPPA analysis (Table S5). Three biological replicates for each sample were generated.
# Nomenclatures on the RPPA heatmaps: name_of_antibody.species_of_antibody.status_of_antibody. V - antibody validated; C - validation of antibody in progress; Q - antibody nonspecific; E – under evaluation; antibodies raised in M - mouse, G - goat, R - rabbit, or T - rat.
structure (smiles),measurement,value
"CN(C)c1cccc(Nc2cc(-c3ccccc3)nc(C3CCNCC3)n2)c1 [ARN22089, N1,N1-dimethyl-N3-(6-phenyl-2-(piperidin-4-yl)pyrimidin-4-yl)benzene-1,3-diamine]",RPPA PYGB.R.V,1.097 and 1.103
same,RPPA PYGM.M.C,0.934 and 0.932 and 1.083
same,RPPA Patched.R.C,0.965 and 1.140 and 1.132
same,RPPA Paxillin.R.C,0.641 and 0.823 and 1.018
same,RPPA Pdcd4.R.C,0.925 and 0.993 and 1.052
same,RPPA Porin.M.V,1.104 and 0.957
same,RPPA Puma.R.C,0.983 and 0.942 and 1.107
same,RPPA Pyk2_pY402.R.C,0.954 and 1.153 and 1.099
same,RPPA RBM15.R.V,1.017 and 0.937 and 1.032
same,RPPA RIP3.R.C,0.931 and 0.981
same,RPPA RIP.R.C,0.915 and 1.063
same,RPPA RPA32.R.V,1.148 and 1.033 and 1.052
same,RPPA RPA32_pS4_S8.R.C,2.002 and 1.599 and 0.993
same,RPPA RRM1.R.C,0.824 and 0.941
same,RPPA RRM2.R.C,0.754 and 0.881 and 1.132
same,RPPA RSK1.R.V,0.828 and 0.819
same,RPPA RSK.R.C,1.012 and 0.889 and 1.017
same,RPPA Rab11.R.C,1.004 and 1.130
same,RPPA Rab25.R.V,0.958 and 1.084
same,RPPA Rad17_pS645.R.V,0.998 and 1.234 and 0.987
same,RPPA Rad23A.R.C,0.881 and 0.793 and 1.163
same,RPPA Rad50.R.V,1.028
same,RPPA Rad51.R.C,0.897 and 0.995 and 0.927
same,RPPA Raptor.R.V,0.847 and 1.006 and 1.049
same,RPPA Rb.M.Q,1.078 and 0.962 and 0.891
same,RPPA Rb_pS807_S811.R.V,0.920 and 0.719 and 1.081
same,RPPA Rheb.M.C,1.252 and 1.239
same,RPPA Rictor.R.C,0.967
same,RPPA Rictor_pT1135.R.V,1.012 and 1.102 and 1.115
same,RPPA S6.M.V,1.262 and 0.956 and 0.729
same,RPPA S6_pS235_S236.R.V,0.203 and 0.249 and 0.565
same,RPPA S6_pS240_S244.R.V,0.207 and 0.313 and 0.749
same,RPPA SCD.M.V,1.014 and 0.906 and 0.962
same,RPPA SDHA.R.V,1.002 and 1.200
same,RPPA SF2.R.V,1.008 and 0.980
same,RPPA SFRP1.R.V,1.055 and 0.981 and 0.922
same,RPPA SGK1.R.V,0.787 and 0.759 and 0.980
same,RPPA SGK3.R.V,1.047 and 1.079 and 0.942
same,RPPA SHP2.R.V,1.046 and 1.001 and 0.967
same,RPPA SHP.2_pY542.R.C,1.101
same,RPPA SIRPαR.V,1.429 and 0.758 and 0.756
same,RPPA SLC1A5.R.C,1.116 and 0.885 and 1.238
same,RPPA SOD1.M.V,0.930 and 1.026 and 0.944
same,RPPA SOD2.R.V,1.210 and 1.153 and 0.970
same,RPPA SOX7.R.V,1.129 and 1.097 and 1.010
same,RPPA STING.R.V,1.022 and 0.890 and 0.979
same,RPPA Shc_pY317.R.C,0.878 and 1.001 and 1.156
same,RPPA Slfn11.G.C,1.081 and 0.905 and 0.999
same,RPPA Smac.M.Q,1.032 and 0.944 and 0.954
same,RPPA Smad1.R.V,0.952 and 1.150 and 1.141
same,RPPA Smad3.R.V,1.122 and 1.116
same,RPPA Smad4.R.V,1.439 and 1.061 and 0.837
same,RPPA Snail.M.Q,0.766 and 0.784 and 0.712
same,RPPA Sox2.R.V,1.214 and 1.389
same,RPPA Sox17.R.V,0.937 and 0.923
same,RPPA Src.M.V,0.956 and 1.011 and 0.918
same,RPPA Src_pY416.R.V,0.994 and 1.111 and 0.997
same,RPPA Src_pY527.R.V,1.022 and 1.387 and 1.151
same,RPPA Stat1_pY701.R.V,1.097 and 1.029 and 0.986
same,RPPA Stat3.R.C,0.851 and 0.986 and 1.101
same,RPPA Stat3_pY705.R.C,1.728 and 1.194 and 0.922
same,RPPA Stat5a.R.V,0.903 and 1.373 and 1.278
same,RPPA Stathmin.1.R.V,0.916 and 0.858 and 0.997
same,RPPA Syk.M.V,0.934 and 1.057 and 0.933
same,RPPA Synaptophysin.R.C,1.153 and 0.998 and 0.965
same,RPPA TAZ.R.V,0.631 and 0.534 and 0.991
same,RPPA TEAD.R.C,0.716 and 1.191
same,RPPA TFAM.R.V,0.999 and 0.944 and 0.992
same,RPPA TFRC.R.V,0.895 and 0.844 and 1.062
same,RPPA TIGAR.R.V,1.012 and 1.022 and 1.077
same,RPPA TRAP1.M.V,0.979 and 0.864 and 0.990
same,RPPA TRIM24.R.C,1.117 and 0.958
same,RPPA TRIM25.R.C,0.754 and 0.868 and 1.058
same,RPPA TRIP13.R.V,1.019 and 0.950 and 0.966
same,RPPA Tau.M.C,1.147 and 1.195 and 0.925
same,RPPA Transglutaminase.M.V,0.881 and 1.342 and 1.747
same,RPPA level HLA.DQA1.R.V,1.062 and 1.076 and 0.920
same,RPPA level HLA.DR.DP.DQ.DX.R.C,1.376 and 1.011 and 0.963
same,RPPA level HMHA1.R.V,1.204
same,RPPA level HNRNPK.R.V,1.033 and 1.100
same,RPPA level HSP27.M.C,0.818 and 0.879 and 0.896
same,RPPA level HSP27_pS82.R.V,0.857 and 1.102 and 1.157
